Measured values: patent publication US20200354331A1, “ICARIIN DERIVATIVES” (H. LEE MOFFITT CANCER CENTER AND RESEARCH INSTITUTE, INC., priority 2014, published 2020)
Read-outs that look alike come from different tables or passages of the source.

How the values were obtained:
Gr-1+CD11b+ MDSCs = test: Circulating Gr-1+CD11b+ MDSC in spleens of 4T1 tumor-bearing mice (flow cytometry); assay type: in vivo, BALB/c mice; settings: 100 mg/kg i.p. three times weekly, vehicle 50.28%
Procedure: FIG. 1 depicts the effects of ICA or ICT on the differentiation of MDSC. MDSC were isolated from spleens of 4T1 tumor-bearing mice. The maturation markers indicated were used to evaluate the differentiation and accumulation of MDSC in tumor bearing mice. Cell phenotype was evaluated by flow cytometry. One of the most striking features of ICA and ICT is their anti-tumorigenic ability in vivo. Seven days post-infection 1 cm diameter 4T1 tumors from 5 mice were established in BALB/c mice. Mice were treated with 100 mg/kg of ICA, ICT or vehicle (i.p.) three times weekly and tumor size (mean and SD) was monitored every 2 to 3 days. The percentages of double-positive Gr-1+CD11b′ MDSCs were determined for spleens of five mice per group. Cell phenotype was evaluated by flow cytometry. […] ICA or ICT on the differentiation of MDSC.

U937 [1] = test: IC50 / toxicity in cells; assay type: cell-based; settings: Homo sapiens, U-937
[2] = system: CD16 (FcγRIII) in CD3− CD56+ NK cells; test: Surface expression of CD16 in NK cells (flow cytometry); assay type: cell-based; settings: PBMC from healthy donors, 48 hours treatment
Procedure: FIG. 16 depicts the effect of ICA and ICT treatment on the surface expression of CD16 (FcγRIII) in NK cells. PBMC from healthy donors were treated with ICA/ICT or DMSO for 48 hours before analysis of CD16 expression by flow cytometry. NK cells were defined as CD3^− population and analyzed for the presence of CD16±CD56^+ cells as indicated.
An alternative strategy can be performed by measuring NK-mediated antibody dependent cytotoxicity (ADCC) on SIGLEC3^+ MDSC. […] This is particularly of interest, because these Fc receptors can be critical for the development of ADCC, a cytotoxic function of NK cells. This function can involve the activation of NK cells through the ligation of CD16 with an antibody already bound to a target cell which can trigger the target cell to undergo apoptosis through the release of cytotoxic granules containing perform and granzymes. Humanized anti-SIGLEC3/CD33 antibodies can be used to apply a strategy to deplete MDSC by NK-mediated ADCC.

[3] = system: MDSCs isolated from tumors of 4T1 tumor-bearing mice; test: ROS and NO production of MDSC isolated from tumors; assay type: cell-based; settings: MDSCs from tissue of tumor-bearing mice, 20 μM, 48 h
Procedure: FIGS. 3A-3C depicts the effect of ICA and ICT on expansion of MDSCs isolated from tumor and their ROS and NO production. Gr1^+ cells were isolated from tumors of 4T1 tumor-bearing mice. (FIG. 3A) MDSCs were treated with 20 μM of ICA, ICT, or DMSO for 48 h. Bars represent the relative percentage of MDSC as compared to DMSO treated cells measured by flow cytometry. (FIG. 3B) Production of ROS and (FIG. 3C) NO activity of purified MDSC from tumor tissue.
Specifically, BMNCs from three healthy donors were treated with different concentrations of ICA or ICT for 48 hours after which colony formation was assessed using MethoCult H4434 complete medium with cytokines. The mixture was placed in 35-mm culture dishes (1×10^5 cells/each dish) and incubated at 37° C. in 5% CO2 for approximately 7-14 days. After incubation, colonies of CFU-E, BFU-E and CFU-GM were indentified and counted using an inverted light microscope. […] Although, these cells were obtained from spleens, it was also found ICA/ICT has a similar effect on MDSCs isolated from tumor tissue. Here, Gr1^+ cells were isolated from tumors of 4T1 tumor-bearing mice. […] Bars represent the relative percentage of MDSC as compared to DMSO treated cells measured by flow cytometry (FIG. 3A). The production of ROS (FIG. 3B) and NO (FIG. 3C) activity of purified MDSC from tumor tissue was also measured.

[4] = system: NK cells and lymphokine-activated killer cells; settings: 0.1 to 1.0 microgram/ml; tumor patients and healthy donors; cited from earlier work
B16 = test: IC50 of ICT in cell lines; assay type: cell-based; settings: Mus musculus
4T1 [5] = test: IC50 of ICT in cell lines; assay type: cell-based; settings: Mus musculus
MCF-7 [6] = test: IC50 of ICT in cell lines; assay type: cell-based; settings: Homo sapiens, MCF7
4T1 [7] = test: Apoptosis rates of ICT in cell lines; assay type: cell-based
K562 = test: Apoptosis rates of ICT in cell lines; assay type: cell-based
Raji = test: Apoptosis rates of ICT in cell lines; assay type: cell-based
MCF-7 [8] = test: Apoptosis rates of ICT in cell lines; assay type: cell-based
U937 [9] = test: Apoptosis rates of ICT in cell lines; assay type: cell-based
PBMC = test: Apoptosis rates of ICT in cell lines; assay type: cell-based
[10] = system: IL-10, TGFb, TNFa, ARG2 and NOS2; test: Expression of suppressive factors in PBMC (Q-PCR); assay type: cell-based; settings: healthy PBMC, 48 hours, 20 μM
Procedure: Healthy PBMC were cultured for 48 hours with 20 μM the gene expression of suppressive factors measured by the DDCt method. The experimental control is PBMC treated with DMSO and the internal control was GAPDH. Error bars indicate the SEM of three separate donors/experiments.

IL-10 and TGFb = test: Expression of IL-10 and TGFb on LPS-treated PBMC (Q-PCR); assay type: cell-based; settings: 48 hours, 20 μM
Procedure: The relative expression of IL-10 and TGFb by Q-PCR are shown in FIGS. 19A and 19B, respectively. Healthy PBMC were cultured for 48 hours with 20 μM ICT and the gene expression measured by the DDCt method. The experimental control is PBMC treated with DMSO for 48 hours and the internal control was GAPDH. Error bars indicate the SEM of three separate donors/experiments.

CD33 and iNOS = test: Expression of CD33 and iNOS on MDS-BM (flow cytometry, Q-PCR); assay type: cell-based; set-up: concentration or dose not given beside the values; settings: 48 hours, 20 ICT

In the case of `COc1ccc(-c2oc3c(CC=C(C)C)c(O[C@@H]4O[C@H](CO)[C@@H](O)[C@H](O)[C@H]4O)cc(O)c3c(=O)c2O[C@@H]2O[C@@H](C)[C@H](O)[C@@H](O)[C@H]2O)cc1` [ICA, Icariin], the “percent of circulating MDSC” value (Gr-1+CD11b+ MDSCs) is reported as 33.35%, the IC50 (U937 [1]) is reported as greater than 100 µM and the “expression level of Fc receptor (CD16, FcγRIII) in NK cells” value [2] is reported as “increase the expression level of Fc receptor”. The “NO and ROS production by MDSCs” value [3] was “inhibit NO and ROS production” and the “NK cell activity and LAK activity” value [4] was “increase NK cell activity and lymphokine-activated killer cell (LAK) activity”.
For `COc1ccc(-c2oc3c(CCC(C)(C)O)c(O)cc(O)c3c(=O)c2O)cc1` [ICT, 3,5,7-trihydroxy-4′-methoxy-8-(3-hydroxy-3-methylbutyl)-flavone], the “percent of circulating MDSC” value (Gr-1+CD11b+ MDSCs) was 26.97%, the IC50 (B16) was 25.8 µM and the IC50 (4T1 [5]) was 6.7 µM. For the same compound, the IC50 (MCF-7 [6]) was 23.2 µM, the IC50 (U937 [1]; U937, read-out: IC50) was greater than 100 µM and the Apoptosis rates (4T1 [7]; 4T1, 5 μM) was 4.0%. It also gave an Apoptosis rates (4T1 [7]; 4T1, 10 μM) of 6.3%, an Apoptosis rates (4T1 [7]; 4T1, 20 μM) of 7.1% and an Apoptosis rates (K562; K562, 5 μM) of 5.5%. The Apoptosis rates (K562; K562, 10 μM) was 6.7%, the Apoptosis rates (K562; K562, 20 μM) was 7.8% and the Apoptosis rates (Raji; 5 μM) was 9.1%. The Apoptosis rates (Raji; 10 μM) was 9.2%, the Apoptosis rates (Raji; 20 μM) was 10.0% and the Apoptosis rates (MCF-7 [8]; MCF-7, 5 μM) was 3.9%. For the same compound, the Apoptosis rates (MCF-7 [8]; MCF-7, 10 μM) was 4.1%, the Apoptosis rates (MCF-7 [8]; MCF-7, 20 μM) was 6.1% and the Apoptosis rates (U937 [9]; U937, 5 μM) was 3.1%. The Apoptosis rates (U937 [9]; U937, 10 μM) was 2.6%, the Apoptosis rates (U937 [9]; U937, 20 μM) was 2.7% and the Apoptosis rates (PBMC; 5 μM) was 4.6%. The Apoptosis rates (PBMC; 10 μM) was 5.5%, the Apoptosis rates (PBMC; 20 μM) was 6.9% and the “expression of suppressive factors in PBMC” value [10] was “down-regulate the expression of suppressive factors in PBMC”. The “expression of IL-10 and TGFb on LPS-treated PBMC” value (IL-10 and TGFb) was “down-regulate the expression of the suppressive cytokine IL-10 and TGFb on LPS-treated PBMC”, the “expression of CD33 and iNOS on MDS-BM” value (CD33 and iNOS) was “down-regulate the expression of CD33 and iNOS on MDS-BM” and the “expression level of Fc receptor (CD16, FcγRIII) in NK cells” value [2] was “increase the expression level of Fc receptor”. For the same compound, the “NO and ROS production by MDSCs” value [3] was “inhibit NO and ROS production”.
